Laboratory results published in PubChem BioAssay AID250 (DTP/NCI, 2004).
Values joined by “and” are separate entries in the source; they are usually repeats but may differ in a detail not shown here. Equal entries are not always repeated. Toxic doses and inconclusive results are not listed.

Test system: BDF1 mice, L1210 leukemia sc, survival T/C
Experiment: NCI In Vivo Anticancer Drug Screen. Data for tumor model L1210 Leukemia (subcutaneous) in B6D2F1 (BDF1) mice
Settings: endpoint: median survival time, higher = longer survival
In short: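 Antitumor activity is assessed in mice with transplanted tumors by comparing the treated group (T) with the vehicle control group (C).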

[1] = dose: 64.8 mg/kg/injection, schedule: Q01DX Z (sc), vehicle: methylcellulose (MC)
[2] = dose: 108.0 mg/kg/injection, schedule: Q01DX Z (sc), vehicle: methylcellulose (MC)
[3] = dose: 180.0 mg/kg/injection, schedule: Q01DX Z (sc), vehicle: methylcellulose (MC)
[4] = dose: 300.0 mg/kg/injection, schedule: Q01DX Z (sc), vehicle: methylcellulose (MC)
[5] = dose: 500.0 mg/kg/injection, schedule: Q01DX Z (sc), vehicle: methylcellulose (MC)
[6] = dose: 108.0 mg/kg/injection, schedule: Q01DX Z (sc), vehicle: saline

`CC(C)CSc1ncnc2nc[nH]c12` was tested, and the T/C (dose: 38.9 mg/kg/injection, schedule: Q01DX Z (sc), vehicle: methylcellulose (MC)) was 100 % of control, the T/C [1] was 100 % of control and the T/C [2] was 100 % of control.

With `COC(=O)c1[nH]c(=O)[nH]c(=O)c1F` the T/C (dose: 5.0 mg/kg/injection, schedule: Q01DX Z (sc), vehicle: methylcellulose (MC)) was 111 % of control, the T/C (dose: 10.0 mg/kg/injection, schedule: Q01DX Z (sc), vehicle: methylcellulose (MC)) was 158 % of control and the T/C (dose: 20.0 mg/kg/injection, schedule: Q01DX Z (sc), vehicle: methylcellulose (MC)) was 164 % of control. For the same molecule, the T/C (dose: 40.0 mg/kg/injection, schedule: Q01DX Z (sc), vehicle: methylcellulose (MC)) was 158 % of control and the T/C (dose: 80.0 mg/kg/injection, schedule: Q01DX Z (sc), vehicle: methylcellulose (MC)) was 152 % of control.

In the case of `CCCNc1ncnc2[nH]ncc12`, the T/C [1] is reported as 120 % of control, the T/C [2] is reported as 110 % of control and the T/C [3] is reported as 100 % of control. For the same molecule, the T/C [4] was 100 % of control and the T/C [5] was 100 % of control.

With `C[C@]12C=CC(=O)C=C1CC[C@@H]1[C@@H]2CC[C@]2(C)OC(=O)CC[C@@H]12` the T/C (dose: 23.0 mg/kg/injection, schedule: Q01DX Z (sc), vehicle: methylcellulose (MC)) was 100 % of control, the T/C (dose: 39.0 mg/kg/injection, schedule: Q01DX Z (sc), vehicle: methylcellulose (MC)) was 100 % of control and the T/C (dose: 65.0 mg/kg/injection, schedule: Q01DX Z (sc), vehicle: methylcellulose (MC)) was 100 % of control. The T/C [3] was 100 % of control, the T/C [4] was 100 % of control and the T/C [5] was 100 % of control.

For `CCCOC1=C(N2CC2)C(=O)C(OCCC)=C(N2CC2)C1=O`, the T/C (dose: 8.4 mg/kg/injection, schedule: Q01DX Z (sc), vehicle: saline) was 110 % of control, the T/C (dose: 14.0 mg/kg/injection, schedule: Q01DX Z (sc), vehicle: saline) was 110 % of control and the T/C [6] was 115 % of control.

With `O=c1ccn(C2OC(CO)C(O)C2O)c(=O)[nH]1` (centres undefined) the T/C (dose: 65.0 mg/kg/injection, schedule: Q01DX Z (sc), vehicle: saline) was 100 % of control, the T/C [6] was 100 % of control and the T/C (dose: 180.0 mg/kg/injection, schedule: Q01DX Z (sc), vehicle: saline) was 95 % of control and 111 % of control. The T/C (dose: 300.0 mg/kg/injection, schedule: Q01DX Z (sc), vehicle: saline) was 90 % of control and 100 % of control, the T/C (dose: 500.0 mg/kg/injection, schedule: Q01DX Z (sc), vehicle: saline) was 90 % of control and 100 % of control and the T/C (dose: 833.0 mg/kg/injection, schedule: Q01DX Z (sc), vehicle: saline) was 100 % of control. The T/C (dose: 1388.0 mg/kg/injection, schedule: Q01DX Z (sc), vehicle: saline) was 100 % of control.

`CC(=O)NC(CCC(=O)C=[N+]=N)C(=O)O` (centres undefined) was tested, and the T/C (dose: 0.07 mg/kg/injection, schedule: Q#A X Z (sc), vehicle: water) was 100 % of control, the T/C (dose: 0.11 mg/kg/injection, schedule: Q#A X Z (sc), vehicle: water) was 109 % of control and the T/C (dose: 0.14 mg/kg/injection, schedule: Q01DX Z (sc), vehicle: water) was 95 % of control. The T/C (dose: 0.19 mg/kg/injection, schedule: Q01DX Z (sc), vehicle: water) was 110 % of control, the T/C (dose: 0.19 mg/kg/injection, schedule: Q#A X Z (sc), vehicle: water) was 109 % of control and the T/C (dose: 0.24 mg/kg/injection, schedule: Q01DX Z (sc), vehicle: water) was 108 % of control. For the same molecule, the T/C (dose: 0.31 mg/kg/injection, schedule: Q01DX Z (sc), vehicle: water) was 109 % of control and 110 % of control, the T/C (dose: 0.31 mg/kg/injection, schedule: Q#A X Z (sc), vehicle: water) was 122 % of control and the T/C (dose: 0.4 mg/kg/injection, schedule: Q01DX Z (sc), vehicle: water) was 116 % of control. The T/C (dose: 0.47 mg/kg/injection, schedule: Q01DX Z (sc), vehicle: water) was 120 % of control, the T/C (dose: 0.52 mg/kg/injection, schedule: Q01DX Z (sc), vehicle: water) was 109 % of control and 113 % of control and the T/C (dose: 0.52 mg/kg/injection, schedule: Q02DX Z (sc), vehicle: water) was 100 % of control. The T/C (dose: 0.78 mg/kg/injection, schedule: Q01DX Z (sc), vehicle: water) was 170 % of control, the T/C (dose: 0.86 mg/kg/injection, schedule: Q01DX Z (sc), vehicle: water) was 155 % of control and the T/C (dose: 0.86 mg/kg/injection, schedule: Q02DX Z (sc), vehicle: water) was 104 % of control. The T/C (dose: 0.86 mg/kg/injection, schedule: Q## X Z (sc), vehicle: water) was 100 % of control, the T/C (dose: 1.3 mg/kg/injection, schedule: Q01DX Z (sc), vehicle: water) was 160 % of control and the T/C (dose: 1.44 mg/kg/injection, schedule: Q01DX Z (sc), vehicle: water) was 150 % of control. For the same molecule, the T/C (dose: 1.44 mg/kg/injection, schedule: Q02DX Z (sc), vehicle: water) was 109 % of control, the T/C (dose: 1.44 mg/kg/injection, schedule: Q## X Z (sc), vehicle: water) was 109 % of control and the T/C (dose: 2.16 mg/kg/injection, schedule: Q01DX Z (sc), vehicle: water) was 150 % of control. The T/C (dose: 2.4 mg/kg/injection, schedule: Q## X Z (sc), vehicle: water) was 104 % of control, the T/C (dose: 3.11 mg/kg/injection, schedule: Q01DX Z (sc), vehicle: water) was 116 % of control and the T/C (dose: 3.6 mg/kg/injection, schedule: Q01DX Z (sc), vehicle: water) was 150 % of control. For the same molecule, the T/C (dose: 4.0 mg/kg/injection, schedule: Q02DX Z (sc), vehicle: water) was 118 % of control, the T/C (dose: 4.0 mg/kg/injection, schedule: Q## X Z (sc), vehicle: water) was 113 % of control and the T/C (dose: 5.18 mg/kg/injection, schedule: Q01DX Z (sc), vehicle: water) was 116 % of control. The T/C (dose: 6.72 mg/kg/injection, schedule: Q02DX Z (sc), vehicle: water) was 154 % of control, the T/C (dose: 6.72 mg/kg/injection, schedule: Q## X Z (sc), vehicle: water) was 109 % of control and the T/C (dose: 8.64 mg/kg/injection, schedule: Q01DX Z (sc), vehicle: water) was 100 % of control. For the same molecule, the T/C (dose: 10.0 mg/kg/injection, schedule: Q01DX Z (sc), vehicle: water) was 120 % of control, the T/C (dose: 10.0 mg/kg/injection, schedule: Q## X Z (sc), vehicle: water) was 110 % of control and the T/C (dose: 11.2 mg/kg/injection, schedule: Q## X Z (sc), vehicle: water) was 109 % of control. For the same molecule, the T/C (dose: 14.4 mg/kg/injection, schedule: Q01DX Z (sc), vehicle: water) was 104 % of control, the T/C (dose: 17.0 mg/kg/injection, schedule: Q07DX Z (sc), vehicle: water) was 120 % of control and the T/C (dose: 17.0 mg/kg/injection, schedule: Q## X Z (sc), vehicle: water) was 110 % of control. The T/C (dose: 24.0 mg/kg/injection, schedule: Q01DX Z (sc), vehicle: water) was 100 % of control, the T/C (dose: 28.0 mg/kg/injection, schedule: Q07DX Z (sc), vehicle: water) was 120 % of control and the T/C (dose: 28.0 mg/kg/injection, schedule: Q## X Z (sc), vehicle: water) was 115 % of control. For the same molecule, the T/C (dose: 40.0 mg/kg/injection, schedule: Q01DX Z (sc), vehicle: water) was 100 % of control, the T/C (dose: 47.0 mg/kg/injection, schedule: Q01DX001 (sc), vehicle: water) was 115 % of control and the T/C (dose: 47.0 mg/kg/injection, schedule: Q07DX Z (sc), vehicle: water) was 110 % of control. The T/C (dose: 47.0 mg/kg/injection, schedule: Q## X Z (sc), vehicle: water) was 110 % of control and 120 % of control, the T/C (dose: 78.0 mg/kg/injection, schedule: Q01DX001 (sc), vehicle: water) was 120 % of control and the T/C (dose: 78.0 mg/kg/injection, schedule: Q07DX Z (sc), vehicle: water) was 120 % of control. For the same molecule, the T/C (dose: 78.0 mg/kg/injection, schedule: Q## X Z (sc), vehicle: water) was 110 % of control and 120 % of control, the T/C (dose: 130.0 mg/kg/injection, schedule: Q01DX001 (sc), vehicle: water) was 120 % of control and the T/C (dose: 130.0 mg/kg/injection, schedule: Q07DX Z (sc), vehicle: water) was 120 % of control. For the same molecule, the T/C (dose: 216.0 mg/kg/injection, schedule: Q07DX Z (sc), vehicle: water) was 120 % of control, the T/C (dose: 216.0 mg/kg/injection, schedule: Q## X Z (sc), vehicle: water) was 160 % of control and the T/C (dose: 360.0 mg/kg/injection, schedule: Q07DX Z (sc), vehicle: water) was 120 % of control.

In the case of `O=c1nc2[nH]c(=O)[nH]c(=O)c2n[nH]1`, the T/C (dose: 10.0 mg/kg/injection, schedule: Q01DX Z (sc), vehicle: saline) is reported as 100 % of control, the T/C (dose: 28.0 mg/kg/injection, schedule: Q01DX Z (sc), vehicle: saline) is reported as 100 % of control and the T/C (dose: 47.0 mg/kg/injection, schedule: Q01DX Z (sc), vehicle: saline) is reported as 100 % of control. For the same molecule, the T/C (dose: 78.0 mg/kg/injection, schedule: Q01DX Z (sc), vehicle: saline) was 100 % of control.
